Measurements reported in patent publication US6908943B2, “Use of γ-tocopherol and its oxidative metabolite LLU-α in the treatment of disease” (Loma Linda University Medical Center, priority 1998, dated 2005).
Values joined by “and” are separate entries in the source; they are usually repeats but may differ in a detail not shown here. Equal entries are not always repeated. “Also recorded” adds a separate entry of the source. Values belong to the molecule of their own block, whether it stands above or below them.

Columns and labels:
conscious rats = assay: In vivo bioassay for natriuresis in conscious rats; design: species or system rat; conditions: for Natriuretic Response (R): R > 0.67 = active
Method: The assay for natriuresis in conscious rats has been described previously (see Benaksas et al., above). The assay is briefly reiterated here. Female Sprague-Dawley (Harlan) rats (200-250 g) were cannulated in the femoral artery and vein for monitoring of mean arterial pressure (MAP) and Infusion of saline and samples, respectively. The bladder was catheterized for collection of urine in ten-minute periods. Furosemide (0.4 mg/kg bwt; 1 mg/mL in 0.17% saline) was infused as a positive control at the beginning of the sixth ten-minute period. The sample was infused at the beginning of the seventeenth ten-minute period. Urine was collected for another 150 minutes. The volume of the urine was determined gravimetrically and the Na^+ and K^+ concentrations determined with a Beckman E2A electrolyte analyzer.
The natriuretic response of a sample was normalized to the dose of furosemide infused. The not sodium excretion for the Infusion of furosemide or sample was calculated as follows. The median sodium excretion value (μmoles Na^+/10 minute period) for the five periods before infusion of furosemide or sample was used to establish a baseline value for the calculation of ΔUNaV (=μmoles Na^+ period—baseline μmoles Na^+) for administration of either furosemide or sample respectively. The sum of ΔUNaV for the four periods following infusion of furosemide was the net sodium excreted for furosemide, defined as FR. The sum of ΔUNaV for the fifteen periods following infusion of the sample was the net sodium excreted for the sample defined as SR. The natriuretic ratio Rn (or normalized natriuretic response) of a sample was calculated by dividing SR by FR (Rn=SR/FR). A sample is considered natriuretically active if the Rn value for that sample was greater than or equal to 0.67 (greater than 99% confidence limits).

Na+/K+-ATPase = molecular target: T1, Na+/K+-ATPase (Bos taurus, UniProt Q08DA1); assay: Na+/K+-ATPase inhibition assay (86Rb+ uptake) in MDBK cells; type: cell-based, bovine; conditions: 0.2-200 ng/well
T1 construct: host or cells: MDBK (Madin-Darby bovine kidney) cells
Method: The assay in MDBK cells has been described previously (see Benaksas at al., above). The assay is described briefly here. Madin-Darby bovine kidney (MDBK) cells (ATCC:CCL22) were maintained in Dulbecco's Modified Eagle's Medium (DMEM) with 5% Fetal Bovine Serum and 5% Bovine Calf Serum in a 5% CO2/95% humidified air atmosphere at 37° C. and split (1:2) once per week.
One day before the assay, cells were plated in a 96-well plate at a density of 5×10^5 cells/well in DMEM with serum. On the day of the assay the medium was removed and the cells washed with phosphate buffered saline (PBS) before addition of 100 μL of assay media (122 mM NaCl, 1.8 mM CaCl2, 0.8 mM MgSO4, 24 mM NaHCO3, 1 mM sodium pyruvate, 25 mM glucose, 14 mM glycylglycine, 0.2% phenol red, 8 mM Na2HPO4 1.15 mM KH2PO4, pH 8.0) and 100 μl of sample. The plate was preincubated for 30 minutes at 37° C., then chilled on ice for 10 minutes. To each well was added 0.15 μCi ^86RbCl (Amersham) in 10 μL of assay media. The plate was then incubated at 37° C. for 10 minutes. A portion (100 μL) of the supernatant was counted with 0.5 mL of scintillation cocktail in a liquid scintillation counter. As a control for Na^+/K^+-ATPase inhibition, a dose response curve for ouabain in the range of 10^−5-10^−8 M was obtained. Intra-experiment coefficient of variation for ouabain was 3-15%. […]

[1] = Chemical characteristics / stability of the natriuretic LLUs; type: physicochemical
[2] = system: tumor cells derived from a spontaneously arising mammary tumor; assay: Tumor formation in mice injected with mammary tumor cells; type: in vivo; conditions: 20 mg/kg, 21 days after tumor cell injection, versus untreated tumor-induced control mice
Text: Four groups of mice are used in the study: (1) control mice in which tumor formation is not induced but treatment with a formulation of γ-tocopherol 75% (weight to weight) and LLU-α 25% (weight to weight) is rendered; (2) control mice in which tumor formation is induced and treatment is not rendered; (3) experimental mice in which tumor formation is induced and treatment with γ-tocopherol 75% (weight to weight) is rendered; and (4) experimental mice in which tumor formation is induced and treatment with a formulation of γ-tocopherol 75% (weight to weight) and LLU-α 25% (weight to weight) is rendered. As a further control, mice in which tumor formation is induced are treated with varying concentrations of α-tocopherol so as to evaluate the relative effectivity of γ-tocopherol and the formulation of γ-tocopherol and LLU-α, as compared to α-tocopherol.
Mice which receive treatment with γ-tocopherol or a formulation of γ-tocopherol and LLU-α, as described above, are given 20 mg/kg of supplement for a period of 2-4 weeks. Tumor cells derived from a spontaneously arising mammary tumor are then injected into the thigh area of the experimental mice to induce tumor formation. Treatment with γ-tocopherol and the formulation of γ-tocopherol and LLU-α is continued according to the protocol above. After 21 days, the mean volume of tumors in the mice is determined and compared.

melting point: 173 °C
Structure (SMILES): Cc1c(C)c2c(c(C)c1O)CCC(C)(CCC(=O)O)O2 (racemic) [Example 12, 2,5,7,8-tetramethyl-2-(β-carboxyethyl)-6-hydroxy chroman]

kaliuresis (potassium excretion) (conscious rats; after infusion, conscious rat): no detectable kaliuresis
Na+/K+-ATPase inhibition (Na+/K+-ATPase): no inhibition
Physical Properties: stability in CDCl3 ([1]; CDCl3): Unstable in
Physical Properties: stability in dilute base ([1]; dilute base): instability; also recorded: Unstable in
Structure (SMILES): Cc1c(O)cc2c(c1C)OC(C)(CCC(=O)O)CC2 (racemic) [LLU-α, 6-hydroxy-2,7,8-trimethylchroman-2-propanoic acid]
natriuretic activity (conscious rats; 8 μg/kg, further purified on acetic acid/acetonitrile RP-HPLC (seventh step)): active
change in mean arterial pressure (conscious rats; infusion, conscious rat): Neither LLU-α nor -γ caused a significant Change; also recorded: does not cause a significant change
effect on blood pressure (conscious rats; infusion, conscious rat): no effect on blood pressure
natriuresis when infused into the rat (conscious rats; infusion, conscious rat): sustained natriuresis
natriuretic activity at lower or higher doses (conscious rats; partially purified (sixth step), doses below or above 4-8 μg/kg): no activity
dose range with natriuretic activity (conscious rats; partially purified from silica gel-HPLC (sixth purification step)): 4 to 8 µg/kg
natriuretic dose-response curve (conscious rats; shape of curve (Table III)): narrow and biphasic
Natriuretic Response (R) (conscious rats; silica gel HPLC fraction 17, dose 0.2 μg, infused in conscious rat): −0.14
Natriuretic Response (R) (conscious rats; silica gel HPLC fraction 17, dose 1 μg): 0.27
Natriuretic Response (R) (conscious rats; silica gel HPLC fraction 17, dose 2 μg): 1.14 and 0.75
Natriuretic Response (R) (conscious rats; silica gel HPLC fraction 17, dose 10 μg): 0.26
Natriuretic Response (R) (conscious rats; silica gel HPLC fraction 18, dose 22.4 μg): 0.02
Natriuretic Response (R) (conscious rats; silica gel HPLC fraction 18, dose 56.4 μg): 0.23
Natriuretic Response (R) (conscious rats; silica gel HPLC fraction 19, dose 0.2 μg): 0.24
Natriuretic Response (R) (conscious rats; silica gel HPLC fraction 19, dose 1 μg): 0.93
Natriuretic Response (R) (conscious rats; silica gel HPLC fraction 19, dose 10 μg): 0.09
sodium excretion in the urine in mammals (conscious rats; without a corresponding increase in potassium excretion): capable of increasing sodium excretion

Structure (SMILES): Cc1c(O)cc2c(c1C)O[C@](C)(CCC[C@H](C)CCC[C@H](C)CCCC(C)C)CC2 [γ-tocopherol]
mean volume of tumors [2]: less than the mean volume of tumors in the control mice
